Toxic doses and inconclusive results are not listed. Cut-off read from the data, not from the text of the source: active = T/C of 150% or more; inactive = T/C below 125%.
Tested on: L1210 leukemia ip in BDF1 mice, survival T/C
Test: NCI In Vivo Anticancer Drug Screen. Data for tumor model L1210 Leukemia (intraperitoneal) in B6D2F1 (BDF1) mice
Conditions: endpoint: mean survival time, higher = longer survival
Outline: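 Transplantable tumor model; survival measured in treated vs vehicle control mice. Value = treated/control.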

[1] = dose: 100.0 mg/kg/injection, schedule: Q04DX002 (ip), vehicle: Klucel (hydroxypropylcellulose) (HPC)
[2] = dose: 200.0 mg/kg/injection, schedule: Q04DX002 (ip), vehicle: Klucel (hydroxypropylcellulose) (HPC)
[3] = dose: 400.0 mg/kg/injection, schedule: Q04DX002 (ip), vehicle: Klucel (hydroxypropylcellulose) (HPC)
[4] = dose: 50.0 mg/kg/injection, schedule: Q01DX001 (ip), vehicle: carboxymethylcellulose (CMC)
[5] = dose: 100.0 mg/kg/injection, schedule: Q01DX001 (ip), vehicle: carboxymethylcellulose (CMC)
[6] = dose: 400.0 mg/kg/injection, schedule: Q01DX001 (ip), vehicle: carboxymethylcellulose (CMC)

Measured: T/C

[N-]=[N+]=CC(=O)CCC(N)C(=O)O (stereo not given)
inactive: dose: 0.01 mg/kg/injection, schedule: Q01DX015 (ip), vehicle: water 101 % of control | dose: 0.03 mg/kg/injection, schedule: Q01DX015 (ip), vehicle: water 118 % of control | dose: 0.05 mg/kg/injection, schedule: Q01DX009 (ip), vehicle: saline 118 % of control | dose: 0.06 mg/kg/injection, schedule: Q01DX009 (oral), vehicle: saline 114 % of control | dose: 0.2 mg/kg/injection, schedule: Q01DX009 (ip), vehicle: saline 120 % of control | dose: 0.4 mg/kg/injection, schedule: Q01DX009 (ip), vehicle: saline 104 % of control | dose: 3.12 mg/kg/injection, schedule: Q03HX024 (ip), vehicle: saline 90 % of control | dose: 15.0 mg/kg/injection, schedule: Q02DX008 (ip), vehicle: other 104 % of control | dose: 25.0 mg/kg/injection, schedule: Q01DX001 (ip), vehicle: water 123 % of control | dose: 50.0 mg/kg/injection, schedule: Q## X016 (ip), vehicle: saline 98 % of control | dose: 100.0 mg/kg/injection, schedule: Q## X003 (ip), vehicle: saline 92 % of control | dose: 200.0 mg/kg/injection, schedule: Q01DX001 (ip), vehicle: saline 110 % of control | dose: 200.0 mg/kg/injection, schedule: Q## X002 (ip), vehicle: saline 97 % of control | dose: 400.0 mg/kg/injection, schedule: Q## X002 (ip), vehicle: saline 89 % of control | dose: 25.0 micrograms/kg/injection, schedule: Q01DX010 (ip), vehicle: saline 98 % of control | dose: 50.0 micrograms/kg/injection, schedule: Q01DX010 (ip), vehicle: saline 112 % of control
active: dose: 0.1 mg/kg/injection, schedule: Q01DX015 (ip), vehicle: other 168 % of control | dose: 0.1 mg/kg/injection, schedule: Q01DX015 (ip), vehicle: water 154 % of control | dose: 0.2 mg/kg/injection, schedule: Q01DX009 (oral), vehicle: saline 150 % of control | dose: 0.2 mg/kg/injection, schedule: Q01DX015 (ip), vehicle: other 210 % of control | dose: 0.2 mg/kg/injection, schedule: Q01DX015 (ip), vehicle: water 156 % of control | dose: 0.25 mg/kg/injection, schedule: Q01DX009 (oral), vehicle: saline 164 % of control | dose: 0.39 mg/kg/injection, schedule: Q03HX016 (ip), vehicle: saline 150 % of control | dose: 0.39 mg/kg/injection, schedule: Q03HX024 (ip), vehicle: saline 184 % of control | dose: 0.4 mg/kg/injection, schedule: Q01DX015 (ip), vehicle: water 218 % of control | dose: 0.4 mg/kg/injection, schedule: Q02DX005 (oral), vehicle: saline 162 % of control | dose: 0.6 mg/kg/injection, schedule: Q01DX015 (ip), vehicle: water 168 % of control | dose: 0.63 mg/kg/injection, schedule: Q02DX008 (ip), vehicle: water 156 % of control | dose: 0.78 mg/kg/injection, schedule: Q03HX016 (ip), vehicle: saline 165 % of control | dose: 0.78 mg/kg/injection, schedule: Q03HX024 (ip), vehicle: saline 194 % of control | dose: 0.8 mg/kg/injection, schedule: Q02DX005 (oral), vehicle: saline 150 % of control | dose: 1.25 mg/kg/injection, schedule: Q02DX008 (ip), vehicle: water 180 % of control | dose: 1.25 mg/kg/injection, schedule: Q02DX008 (oral), vehicle: water 162 % of control | dose: 1.56 mg/kg/injection, schedule: Q03HX016 (ip), vehicle: saline 160 % of control | dose: 1.56 mg/kg/injection, schedule: Q03HX024 (ip), vehicle: saline 174 % of control | dose: 1.6 mg/kg/injection, schedule: Q02DX005 (oral), vehicle: saline 167 % of control | dose: 2.5 mg/kg/injection, schedule: Q02DX008 (ip), vehicle: other 187 % of control | dose: 2.5 mg/kg/injection, schedule: Q02DX008 (oral), vehicle: other 156 % of control | dose: 2.5 mg/kg/injection, schedule: Q02DX008 (oral), vehicle: water 205 % of control | dose: 3.12 mg/kg/injection, schedule: Q04DX003 (ip), vehicle: saline 150 % of control | dose: 3.2 mg/kg/injection, schedule: Q02DX005 (oral), vehicle: saline 153 % of control | dose: 5.0 mg/kg/injection, schedule: Q02DX008 (ip), vehicle: other 216 % of control | dose: 5.0 mg/kg/injection, schedule: Q02DX008 (oral), vehicle: other 169 % of control | dose: 6.25 mg/kg/injection, schedule: Q04DX003 (ip), vehicle: saline 170 % of control | dose: 6.4 mg/kg/injection, schedule: Q02DX005 (oral), vehicle: saline 179 % of control | dose: 10.0 mg/kg/injection, schedule: Q02DX008 (oral), vehicle: other 205 % of control | dose: 12.5 mg/kg/injection, schedule: Q04DX003 (ip), vehicle: saline 181 % of control | dose: 12.5 mg/kg/injection, schedule: Q08DX002 (ip), vehicle: saline 150 % of control | dose: 12.8 mg/kg/injection, schedule: Q02DX005 (oral), vehicle: saline 185 % of control | dose: 15.0 mg/kg/injection, schedule: Q02DX008 (oral), vehicle: other 184 % of control | dose: 20.0 mg/kg/injection, schedule: Q02DX008 (oral), vehicle: other 197 % of control | dose: 25.0 mg/kg/injection, schedule: Q08DX002 (ip), vehicle: saline 151 % of control | dose: 25.0 mg/kg/injection, schedule: Q## X003 (ip), vehicle: saline 167 % of control | dose: 26.0 mg/kg/injection, schedule: Q02DX005 (oral), vehicle: saline 187 % of control | dose: 50.0 mg/kg/injection, schedule: Q## X002 (ip), vehicle: saline 165 % of control | dose: 100.0 mg/kg/injection, schedule: Q01DX001 (ip), vehicle: saline 156 % of control | dose: 100.0 mg/kg/injection, schedule: Q## X002 (ip), vehicle: saline 168 % of control | dose: 150.0 mg/kg/injection, schedule: Q01DX001 (ip), vehicle: water 159 % of control | dose: 200.0 mg/kg/injection, schedule: Q01DX001 (ip), vehicle: water 151 % of control

O=S(=O)(Oc1ccc(Cl)cc1Cl)c1ccc(Cl)cc1
inactive: dose: 75.0 mg/kg/injection, schedule: Q04DX003 (ip), vehicle: Klucel (hydroxypropylcellulose) (HPC) 93 % of control | dose: 150.0 mg/kg/injection, schedule: Q04DX003 (ip), vehicle: Klucel (hydroxypropylcellulose) (HPC) 101 % of control | dose: 300.0 mg/kg/injection, schedule: Q04DX003 (ip), vehicle: Klucel (hydroxypropylcellulose) (HPC) 90 % of control

CCOc1ccccc1-c1nc2ccccc2s1
inactive: dose: 100.0 mg/kg/injection, schedule: Q04DX003 (ip), vehicle: DMSO 89 % of control | dose: 200.0 mg/kg/injection, schedule: Q04DX003 (ip), vehicle: DMSO 89 % of control | dose: 400.0 mg/kg/injection, schedule: Q04DX003 (ip), vehicle: DMSO 103 % of control

BrC1=C(c2ccccc2)C2CCCCC2C1(Br)c1ccccc1 (stereo not given)
inactive: dose: 100.0 mg/kg/injection, schedule: Q01DX009 (ip), vehicle: Klucel (hydroxypropylcellulose) (HPC) 103 % of control | dose: 200.0 mg/kg/injection, schedule: Q01DX009 (ip), vehicle: Klucel (hydroxypropylcellulose) (HPC) 105 % of control | dose: 400.0 mg/kg/injection, schedule: Q01DX009 (ip), vehicle: Klucel (hydroxypropylcellulose) (HPC) 114 % of control

Nc1nc(Nc2ccc(Cl)c(Cl)c2)cc(=O)[nH]1
inactive: dose: 200.0 mg/kg/injection, schedule: Q01DX Z (ip), vehicle: methylcellulose (MC) 86 % of control

CN1C(=O)N(C)C(=O)C2(C1=O)C1(C(=O)N(C)C(=O)N(C)C1=O)C21C(=O)N(C)C(=O)N(C)C1=O
inactive: [1] 102 % of control | [2] 100 % of control | [3] 89 % of control

NNC(=O)c1cc(Cl)ccn1
inactive: dose: 100.0 mg/kg/injection, schedule: Q04DX003 (ip), vehicle: saline with Tween-80 96 % of control | dose: 200.0 mg/kg/injection, schedule: Q04DX003 (ip), vehicle: saline with Tween-80 102 % of control | dose: 400.0 mg/kg/injection, schedule: Q04DX003 (ip), vehicle: saline with Tween-80 98 % of control

Nn1cnnc1N/N=C/c1ccccc1Cl
inactive: [4] 94 % of control | [5] 96 % of control | dose: 200.0 mg/kg/injection, schedule: Q01DX001 (ip), vehicle: carboxymethylcellulose (CMC) 94 % of control | [6] 90 % of control

CCP(=S)(CC)CC
inactive: [1] 104 % of control | [2] 96 % of control | [3] 93 % of control

NC(=O)C1(Nc2ccc(-c3ccc(Br)cc3)cc2)CCCC1
inactive: [4] 95 % of control | [5] 86 % of control | [6] 86 % of control
